Measured values: PMC12024912, “Druggability Studies of Benzene Sulfonamide Substituted Diarylamide (E3) as a Novel Diuretic” (Biomedicines, 2025)

Columns and labels:
SD rats = assay: Long-term (7 d) diuretic activity in rats; assay type: in vivo, rat; conditions: for ALT / AST / Body weight / Brain index / Heart index / Kidney index / Liver index / Serum K / Serum Na / Serum creatinine / Serum urea / Spleen index / Testis index: n=6
Protocol: In a single-dose administration experiment, male wild-type (WT) mice, UT-B^−/− mice, UT-A1^−/− mice, or SD rats were adapted in metabolic cages for 3 d. Food and water were provided ad libitum throughout the experiment. Prior to administration, the bladder of each animal was emptied through gentle abdominal massage, and urine was collected from the metabolic cages every 2 h. Compound E3, suspended in 0.5% CMC-Na at an appropriate concentration, was administered intragastric gavage to the mice or rats (0.16, 0.8, 4, or 20 mg/kg). Vehicle control comprised 0.5% (w/v) CMC-Na. Urinary parameters were determined through the following: volume: Gravimetric analysis (1 g/mL density assumption); osmolality: freezing-point osmometry (Micro-osmometer, Fisker Associates, Norwood, MA, USA); and urea: diacetyl oxime colorimetry (QuantiChrom® kit, Elabscience, Wuhan, China). In long-term (7 d) diuretic activity experiments, male WT mice, UT-B^−/− mice, UT-A1^−/− mice, and SD rats were acclimatized in metabolic cages (Ugo Basile, Comerio, VA, Italy) for 3 d. Food and water were provided ad libitum throughout the experiment. E3 was suspended in 0.5% CMC-Na and administered at a dose of 4 or 20 mg/kg by intragastric gavage. Urine was collected by metabolic cages every 24 h. Body weight was measured daily. At 4 h after the final administration, a blood sample was obtained by heart puncture. Inner medulla and outer medulla tissue homogenates were prepared, and the supernatant after centrifugation was analyzed for solute concentration and osmolality. Urinary osmolality and urea concentration were measured as above. Serum Na^+, K^+, and Cl^− were measured in a clinical chemistry laboratory, while serum creatinine, ALT, and AST were measured through specific reagent kits (NJJC Bio, Nanjing, China).
Multiple tissues and organs were fixed with 4% paraformaldehyde and embedded in paraffin. Five μm paraffin sections were cut and stained with hematoxylin and eosin (H&E).
Inner medulla tissues were homogenized in ice-cold RIPA buffer supplemented with protease/phosphatase inhibitors (Roche, Basel, Switzerland). Following centrifugation (12,000× g, 15 min, 4 °C), supernatants were subjected to BCA quantification (Thermo Scientific, Waltham, MA, USA). Protein lysates underwent SDS-PAGE separation and electrotransfer to PVDF membranes (Amersham Biosciences, Boston, MA, USA). After 2 h blocking with 5% skimmed milk, membranes were sequentially processed with: (1) TBST washes (20 mM Tris-HCl, 137 mM NaCl, 0.1% Tween-20, pH 7.4); (2) primary antibodies (UT-A1/A2/A3, UT-B, AQP2/3, β-actin; 4 °C, 12 h); and (3) HRP-conjugated secondary antibodies (anti-mouse/rabbit IgG; RT, 2 h). Chemiluminescent detection employed the ECL reagent (Meilunbio, Dalian, China) on a Syngene GeneGnome XRQ system, with band quantification via ImageJ (v1.53k).

UT-B = biological target: T1, UT-B (Homo sapiens, UniProt Q13336); assay: Erythrocyte lysis assay for UT-B inhibition, human erythrocytes; assay type: cell-based
T1 construct: endogenous in cells; host or cells: erythrocytes from healthy adult male volunteers
T1 sequence (Q13336 1-389): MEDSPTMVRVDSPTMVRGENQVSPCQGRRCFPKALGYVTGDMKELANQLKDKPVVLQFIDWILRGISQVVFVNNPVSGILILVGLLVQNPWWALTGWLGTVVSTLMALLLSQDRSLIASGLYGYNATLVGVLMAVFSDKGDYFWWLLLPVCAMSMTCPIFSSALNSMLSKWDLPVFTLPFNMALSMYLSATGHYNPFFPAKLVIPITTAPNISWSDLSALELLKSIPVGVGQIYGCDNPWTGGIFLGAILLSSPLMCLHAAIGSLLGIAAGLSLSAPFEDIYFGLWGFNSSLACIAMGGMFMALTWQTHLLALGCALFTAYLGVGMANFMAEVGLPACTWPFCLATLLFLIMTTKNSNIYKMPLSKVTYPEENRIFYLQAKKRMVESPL
Protocol: The erythrocyte lysis assay was modified from a method described previously. Erythrocytes obtained from veins were diluted to a hematocrit value of 2% in hyperosmolar PBS containing 1.25 mol/L urea and 5 mmol/L glucose and incubated at r.t. for 2 h. Then, 99 μL erythrocyte suspension from a reservoir was added to each well of a 96-well round-bottom microplate, then 1 μL of the testing compound (500, 125, 31.25, 7.81, 1.95, 0.488, 0.122, 0.031, 0.0076 μmol/L dissolved in DMSO) was added to erythrocyte suspension and shook it up with microoscillator for 1 min. Following 5 min incubation, 20 μL erythrocyte suspension was transferred into 96-well black microplates preloaded with 180 μL isotonic PBS (10 mM, urea-free). Erythrocyte lysis was monitored at 710 nm optical density (OD710) for 6 min, with lysis rates calculated using control values from the same plate as Equation (1):Lysis (%) = 100 × (Aneg − Atest)/(Aneg − Apos)(1) where Atest is the absorbance value from the test well, Aneg is from a negative no-lysis control well, and Apos is from a positive full-lysis control.

CC(=O)c1ccc(C(=O)Nc2cccc(NS(=O)(=O)c3ccccc3)c2)o1 [Compound E3, 5-acetyl-N-(3-(phenylsulfonamido)phenyl)furan-2-carboxamide]
urine output (SD rats; 4 mg/kg and 20 mg/kg intragastric, 7 d): continuously increased | ALT (SD rats; 4 mg/kg, 7 d): 42.2±5.5 U/L | AST (SD rats; 4 mg/kg, 7 d): 113.0±10.6 U/L | Body weight (SD rats; 4 mg/kg, 7 d): 242.4 ± 2.3 g | Brain index (SD rats; 4 mg/kg, 7 d): 0.58±0.01% | Heart index (SD rats; 4 mg/kg, 7 d): 0.38±0.01% | Kidney index (SD rats; 4 mg/kg, 7 d): 0.78±0.03% | Liver index (SD rats; 4 mg/kg, 7 d): 3.98±0.08% | Serum K (SD rats; 4 mg/kg, 7 d): 5.16 ± 0.10 mM | Serum Na (SD rats; 4 mg/kg, 7 d): 140.7 ± 1.2 mM | Serum creatinine (SD rats; 4 mg/kg, 7 d): 33.6 ± 1.7 µM | Serum urea (SD rats; 4 mg/kg, 7 d): 7.15 ± 0.16 mM | Spleen index (SD rats; 4 mg/kg, 7 d): 0.30±0.02% | Testis index (SD rats; 4 mg/kg, 7 d): 0.88±0.06% | ALT (SD rats; 20 mg/kg, 7 d): 40.2±1.9 U/L | AST (SD rats; 20 mg/kg, 7 d): 112.9±4.5 U/L | Body weight (SD rats; 20 mg/kg, 7 d): 240.8 ± 4.1 g | Brain index (SD rats; 20 mg/kg, 7 d): 0.64±0.01% | Heart index (SD rats; 20 mg/kg, 7 d): 0.40±0.01% | Kidney index (SD rats; 20 mg/kg, 7 d): 0.73±0.03% | Liver index (SD rats; 20 mg/kg, 7 d): 3.99±0.06% | Serum K (SD rats; 20 mg/kg, 7 d): 4.98 ± 0.12 mM | Serum Na (SD rats; 20 mg/kg, 7 d): 141.3 ± 1.0 mM | Serum creatinine (SD rats; 20 mg/kg, 7 d): 34.1 ± 1.6 µM | Serum urea (SD rats; 20 mg/kg, 7 d): 7.18 ± 0.19 mM | Spleen index (SD rats; 20 mg/kg, 7 d): 0.29±0.01% | Testis index (SD rats; 20 mg/kg, 7 d): 0.94±0.02% | excretion of non-urea solutes (SD rats; 4 and 20 mg/kg, 7 d): did not change | urine osmolality (SD rats; 4 and 20 mg/kg, 7 d): significantly decreased | H&E staining of cortex and medulla of rat kidneys (SD rats; 7 d, except dilatation of the collecting duct due to polyuria): did not induce morphological abnormalities | non-urea solutes in inner medullary tissue (SD rats; 7 d, vs control): did not change | osmolality in inner medullary tissue (SD rats; 7 d, vs control): significantly decreased | outer medullary osmolality, urea concentration, and non-urea solute concentration (SD rats; 7 d, vs control): no differences | urea concentration in inner medullary tissue (SD rats; 7 d, vs control): significantly decreased | body weight, organ indexes, blood biochemical parameters (incl. serum Na+, K+, Cl−) (SD rats; after 7 d of treatment, vs control): no significant difference | maximum inhibition rate, human cells (UT-B; erythrocyte lysis assay): approximately 100% | IC50 (UT-B; red blood cell lysis assay, read-out: IC50 for UT-B-promoted urea transport, humans): 25 nM
